Results published in a melting point compilation (Tetko et al.; mined from patent text by program, amines drawn as free bases though some values may be those of a salt).

First: O=C(Nc1cccc2c1C(=O)c1c-2n[nH]c1C1CCN(C(=O)c2cccs2)CC1)NN1CCOCC1
Second: NS(=O)(=O)c1ccc(N2CCN(CC[C@@H]3OCCc4cc(Br)ccc43)CC2)c(Br)c1
The melting point of the first is higher: 218 to 220 °C for the first, 206 to 208 °C for the second.

Compared with `CCOCc1nc2c(N)nc3ccc(NC(=O)C(C)C)cc3c2n1CC(C)(C)O`, `CCOC(=O)c1c(COC(C)=O)cccc1S(=O)(=O)NC(C)(C)C` is lower in melting point: 259 to 261 °C for the first, 81 to 82 °C for the second.

First: O=C(O)C(=O)c1ccc(OCCCCOc2ccccc2)cc1
Second: COC(=O)C(=O)c1ccc(OCCOc2ccc([N+](=O)[O-])cc2)cc1
The melting point of the first is lower: 103 to 105 °C for the first, 122 to 123 °C for the second.

First: COc1cc2c(N3CCN(C(=O)Nc4ccc(Oc5ccccc5)cc4)CC3)ncnc2cc1OCc1ccccc1
Second: COc1ccc(C(=O)Nc2ccccc2)cc1NCc1cccc(C(=O)O)c1
The melting point of the first is higher: 220 to 221 °C for the first, 210 to 212 °C for the second.

First: COc1ccc(-c2ccc3c(C(=O)N(C)C)c(OC)ccc3c2)cc1
Second: COc1ccc(C(O)c2cccc(OCc3ccc4ccccc4n3)c2)cc1 (stereo unspecified)
The melting point of the first is higher: 187 to 188 °C for the first, 70 to 80 °C for the second.

First: N=c1sc2cc(OC(F)(F)F)ccc2n1CCSc1ccccn1
Second: O=c1c2c(Cc3ccccc3[N+](=O)[O-])n[nH]c2c2cccnc2n1-c1cccc(OC(F)(F)F)c1
The melting point of the first is lower: 104 °C for the first, 274 to 276 °C for the second.

Compared with `CCCCc1oc2ccccc2c1-c1ncc(-c2ccc3cc(OC)ccc3c2)o1`, `COC(=O)c1ccccc1-c1ccc(CNc2nc(=O)[nH]c3ccccc23)cc1` is lower in melting point: 169 to 171 °C for the first, 140 to 160 °C for the second.

First: CNC(=O)C1CC(C)(C)Oc2ccc([N+](=O)[O-])cc21 (stereo unspecified)
Second: CNC(=S)C1=C(O)C(C)(C)Oc2ccc([N+](=O)[O-])cc21
The melting point of the first is higher: 161 to 162 °C for the first, 148 to 149 °C for the second.

First: CC(C)(C)OC(=O)NCc1ccccc1Br
Second: Cc1cc(C(=O)NN)ccc1Br
The melting point of the first is lower: 51 to 53 °C for the first, 164 to 166 °C for the second.

First: COc1ccc(C(=O)C2CCN(C(C)=O)CC2)c(OC)c1
Second: COc1ccc(OC)c(C2=Nc3ccc(N4CCCC4)cc3C(=O)C2)c1
The melting point of the first is lower: 132 to 134 °C for the first, 272 to 274 °C for the second.

First: CC1CNc2c([N+](=O)[O-])cnn2C1 (stereo unspecified)
Second: O=[N+]([O-])N=C1NCCN1Cc1ccc(OCC(F)(F)F)nc1
The melting point of the first is higher: 190 to 192 °C for the first, 109 to 112 °C for the second.

Compared with `O=c1[nH]c(=O)n(CCCCCCl)c2ccccc12`, `CCOC(=O)c1cc(=O)c2ccccc2[nH]1` is higher in melting point: 162 to 163 °C for the first, 210 to 212 °C for the second.

First: CC(=Nc1ccc(NC(=O)CN)cc1)N(C)C
Second: CCOC(=O)c1cnc2ccc(C)cc2c1O
The melting point of the first is lower: 142 to 145 °C for the first, > 260 °C for the second.

First: COC(=O)Cn1c(C(=O)Nc2nc(-c3cc(OC)c(Cl)cc3OC)c(CCC3CCCCC3)s2)cc2cc(C)cc(C)c21
Second: CCOC(=O)C1=C(O)c2cc(OC)c(OC)cc2NC(=O)C1
The melting point of the first is lower: 193 to 195 °C for the first, 218 °C for the second.

First: O=[N+]([O-])c1ccc(-c2cc(Br)sc2-c2ccc(F)cc2)cc1
Second: COC(=O)c1ccc(-c2n[nH]c(-c3ccccc3)n2)cc1
The melting point of the first is lower: 129 to 130 °C for the first, 243 to 244 °C for the second.

First: CC(=O)Oc1cc2oc(=O)cc(CSc3ccccc3C(=O)O)c2cc1OC(C)=O
Second: Cc1cc(SC2=C(O)CC(CCc3ccc(O)cc3)(c3ccccc3)OC2=O)c(C(C)(C)C)cc1CO (stereo unspecified)
The melting point of the first is higher: 216 to 218 °C for the first, 199 to 201 °C for the second.

First: COc1cc(C)nc(NC(=O)NS(=O)(=O)c2ccsc2S(C)(=O)=O)n1
Second: COc1cccc(C(F)(F)F)c1S(=O)(=O)NC(=O)Nc1nc(C)cc(C)n1
The melting point of the first is higher: 204 to 206 °C for the first, 190 °C for the second.

First: CC1(C)Cc2nc(C3CCCC3)c(C(F)c3ccc(C(F)(F)F)cc3)c(-c3ccc(F)c(F)c3)c2C(O)C1 (stereo unspecified)
Second: Nc1ccccc1Oc1cc(-c2ccc(C(F)(F)F)cc2)ncn1
The melting point of the first is lower: 149 to 150 °C for the first, 188 °C for the second.

First: Oc1ccnc2ncnn12
Second: COc1ccc(Cn2ncnc2CO)cc1
The melting point of the first is higher: 290 °C for the first, 95 to 100 °C for the second.

First: O=c1c(N2CCNCC2)nc2ccccc2n1-c1cccc(F)c1
Second: O=c1ccc2c([nH]1)CCN(Cc1ccccc1)C2
The melting point of the first is lower: 149 to 150 °C for the first, 210 to 212 °C for the second.

`CC(C)CN1CCN(CCc2ccc(-c3cccc(N)n3)cc2)CC1` and `COc1ccc2[nH]nc(N3CCN(C[C@@H](O)COc4cccc(-c5noc6ccsc56)c4)CC3)c2c1` cannot be ordered by melting point: 85 to 88 °C for the first, 84 to 86 °C for the second.

First: CCOC(=O)c1cc2cc([Si](C)(C)C)ccc2n1Cc1cccc(F)c1
Second: CCOC(=O)c1ncsc1-c1cccc(I)c1
The melting point of the first is higher: 80 to 82 °C for the first, 77 to 78 °C for the second.

Compared with `CC(=O)C1CCC2=C(C1)C1OC2c2cc3ccccc3cc21` (stereo unspecified), `CC(C)n1nc(-c2sc(C(=O)NC3CC3)nc2-c2cccc(Cl)c2)ccc1=O` is lower in melting point: 158 to 160 °C for the first, 118 to 120 °C for the second.

First: N#Cc1nc(-c2ccccc2)c(-c2ccccc2)nc1Cl
Second: Cc1nc(-c2ccccc2)[nH]c1-c1cnc(-c2ccccc2)nc1
The melting point of the first is higher: 201 to 204 °C for the first, 138 °C for the second.

`N=C(NCc1ccn(C2=CC3=C(CC2)CCc2[nH]c(=O)c(=O)n(CC(=O)O)c23)c1)Nc1ccccc1` and `O=C1c2ccccc2C(=O)N1CCC(=O)N1c2ccccc2N(Cc2ccccc2)C(=O)[C@H]2CCC[C@H]21` (relative stereo) cannot be ordered by melting point: > 225 °C for the first, 242 to 244 °C for the second.

First: CC1CCN(CCCC(=O)c2ccc3c(c2)Cc2cc(C(=O)CCCN4CCC(C)CC4)ccc2-3)CC1
Second: O=C1Cc2cc3c(CCC4CCN(Cc5ccc(Br)cc5)CC4)noc3cc2N1
The melting point of the first is higher: 180 to 181 °C for the first, 177 to 178 °C for the second.

First: CC(C)C1(C)NC(c2ccc3ccccc3n2)=NC1=O (stereo unspecified)
Second: N#Cc1ccc(NCc2ccccc2)nc1
The melting point of the first is lower: 112 to 117 °C for the first, 133 to 134 °C for the second.

First: COC(=O)c1cn(S(=O)(=O)c2ccc(C)cc2)c(C)c1C
Second: Cc1ccc(-c2c(NS(=O)(=O)c3ccc(C(C)(C)C)cc3)nc(C(C)C)nc2OCCO)cc1
The melting point of the first is lower: 108 to 114 °C for the first, 143 to 144 °C for the second.

First: CCOC(=O)NNc1cc(C)c(-c2cccc([N+](=O)[O-])c2)nn1
Second: COc1cccc(C2=CC(=O)N(C)C2=O)c1
The melting point of the first is higher: 186 to 187 °C for the first, 138 to 146 °C for the second.

First: CN1CCN(c2cc3c(cc2F)c(=O)c(C(=O)O)cn3C2COC2)CC1
Second: O=C1CSC(C(=O)O)Cc2cc3c(cc21)OCO3 (stereo unspecified)
The melting point of the first is lower: 178 to 180 °C for the first, 234 to 235 °C for the second.

Compared with `CCCc1c(-c2cc(=O)c3c(O)cc(O)cc3o2)ccc(OC)c1O`, `CCOc1ccn2c(C)c(CCc3ccc4nc(N)oc4c3)nc2c1` is higher in melting point: 200 °C for the first, 207 to 208 °C for the second.

First: COc1cc(CC2SC(N3CCCC3)=NC2=O)cc(-c2ccc(O)c(C3(C)CCCCC3)c2)c1 (stereo unspecified)
Second: COc1cccc(-c2cccc3c2S(=O)(=O)NC(C2CCCCC2)N3)c1 (stereo unspecified)
The melting point of the first is lower: 88 to 91 °C for the first, 108 to 115 °C for the second.

First: CC(C)Sc1c(C(N)=O)sc2cccc(Cl)c12
Second: Nc1cccc2c1CNC2=O
The melting point of the first is lower: 182 to 184 °C for the first, 196 to 197 °C for the second.

Compared with `COc1c(C)cnc(C(Br)C#N)c1C` (stereo unspecified), `CC(=O)c1cnc2onc(C)c2c1O` is higher in melting point: 56 to 57 °C for the first, 162 °C for the second.

First: CC(C)(C)c1ccc(CNc2nc(Nc3cccc(C(F)(F)F)c3)nc(C(F)(F)F)n2)cc1
Second: CC(F)(F)c1cccc(C[C@H](N)[C@H](O)c2ccc(F)cc2)c1 (racemic)
The melting point of the first is lower: 53 to 55 °C for the first, 101 to 102 °C for the second.

First: O=C1CCC(c2cc(F)c(Br)cc2F)C1 (stereo unspecified)
Second: CCOC(=O)c1cc(F)c(C2CNCC2NC(=O)OC(C)(C)C)cc1F (stereo unspecified)
The melting point of the first is lower: 63 to 65 °C for the first, 98 to 100 °C for the second.

Compared with `CC1(c2ccccc2)SC(=S)N(Nc2ccccc2)C1=NO` (stereo unspecified), `CC(=O)NC(=O)CSC(c1ccccc1)(c1ccccc1)c1ccccc1` is higher in melting point: 83 to 84 °C for the first, 147 to 149 °C for the second.

First: CC(C)C[C@H](NS(=O)(=O)c1ccccc1)C(=O)NC(C)(C)C(=O)c1c(-c2ccccc2)c1=O
Second: COc1ccc(S(=O)(=O)C(Cc2cccnc2)(CC(C)C)C(=O)NO)cc1 (stereo unspecified)
The melting point of the first is lower: 53 to 59 °C for the first, 78 °C for the second.

Compared with `c1cn(Cc2ccc3c(c2)-c2[nH]nc(-c4ccsc4)c2C3)cn1`, `O=c1c2c(Cc3ccccc3O)n[nH]c2c2cccnc2n1-c1ccccc1` is higher in melting point: 200 to 204 °C for the first, 278 to 280 °C for the second.

Compared with `O=C(OC1CCCCCCC1)c1ncn2c1[C@@H]1CCCN1C(=O)c1c(Cl)cccc1-2`, `CC(C)(C)OC(=O)NC1CCCCc2cc(OCC3CCCCC3)c(Br)cc21` (stereo unspecified) is lower in melting point: 183 to 184 °C for the first, 142 to 144 °C for the second.

First: CC1(C)CC(SCc2c(C(F)(F)F)nn(C(C)(C)C)c2Cl)=NO1
Second: CC(C)(C)SN1C(=O)NC(=O)C1=O
The melting point of the first is lower: 79 to 81 °C for the first, 150 to 152 °C for the second.

Compared with `NC1=C2C=NN=C2N(c2ccc(Cl)c(Cl)c2)CN1c1ccccc1`, `O=C(O)CCC(Cc1ccc(Cl)cc1Cl)(C(=O)C=Cc1ccc(Cl)cc1)c1ccccc1` (stereo unspecified) is lower in melting point: 306 to 307 °C for the first, 215 to 226 °C for the second.

First: c1ccc(CN2CCC3(Cc4ccccc4O3)C2)cc1 (stereo unspecified)
Second: O=C1C(=O)c2ccccc2C2=C1SCC1(CCC(c3ccccc3)CC1)O2 (stereo unspecified)
The melting point of the first is lower: 43 to 45 °C for the first, 183 to 187 °C for the second.

First: CC1C=CCCC1C1OC(=O)NC1=O (stereo unspecified)
Second: O=C1Nc2ccc(C3CC4CCC3C4)cc2C12OCCO2 (stereo unspecified)
The melting point of the first is lower: 97 to 103 °C for the first, 159 to 161 °C for the second.

Compared with `COc1cc(C2(C=O)C=CC=CC2)ccc1OCCCBr` (stereo unspecified), `CCCCCCOc1cccc(C[C@H](NC(C)=O)[C@H](O)CNCc2cccc(CC)c2)c1` is higher in melting point: 88 to 89 °C for the first, 102 to 105 °C for the second.

First: CCCP(=O)(O)CC(=O)CNCc1ccccc1
Second: CCc1cn(C2CC(O)C(CN(C)C(=O)Cc3ccccc3Br)O2)c(=O)[nH]c1=O (stereo unspecified)
The melting point of the first is lower: 155 to 157 °C for the first, 182 to 185 °C for the second.

First: O=C(NOC1CCCCO1)c1ccc(-c2ccc3ncnc(Nc4ccc(OCc5cccc(F)c5)c(Cl)c4)c3c2)o1 (stereo unspecified)
Second: CCc1nc2c(cnn2CC)c(NC2CCOCC2)c1CNC(=O)c1cccc(C(=O)NCc2ccc(OC)c(-c3cccc(CN4CC(C)NC(C)C4)c3)c2)c1 (stereo unspecified)
The melting point of the first is higher: 221 °C for the first, 127 to 129 °C for the second.

First: CCOC(=O)CS(=O)(=O)Cl
Second: CC1(C)CC1C(=O)NC(=CCCC(=O)O)C(=O)O (stereo unspecified)
The melting point of the first is lower: 74 to 77 °C for the first, 163 to 165 °C for the second.

Compared with `CC1(C)CCOc2c(CC#Cc3ccc(C(=O)O)c(O)c3)cccc21`, `O=C1CCCN1c1cccc(CO)c1` is lower in melting point: 182 to 183 °C for the first, 120 to 121 °C for the second.

First: Cc1cc(C)cc(Cc2[nH]c(=O)[nH]c(=O)c2C(C)C)c1
Second: COCCNc1nc(C2C(=O)Nc3ccc(Br)cc32)c2cn(CCOC)nc2n1 (stereo unspecified)
The melting point of the first is lower: 213 to 214 °C for the first, > 300 °C for the second.

`Cn1ccnc1C(O)(c1ccc(Cl)cc1)c1ccc(Cl)cc1` gave a melting point of 190 to 191 °C.
